The first test addresses T1, Aurora A kinase (Homo sapiens, UniProt O14965).
T1 sequence (O14965 1-403): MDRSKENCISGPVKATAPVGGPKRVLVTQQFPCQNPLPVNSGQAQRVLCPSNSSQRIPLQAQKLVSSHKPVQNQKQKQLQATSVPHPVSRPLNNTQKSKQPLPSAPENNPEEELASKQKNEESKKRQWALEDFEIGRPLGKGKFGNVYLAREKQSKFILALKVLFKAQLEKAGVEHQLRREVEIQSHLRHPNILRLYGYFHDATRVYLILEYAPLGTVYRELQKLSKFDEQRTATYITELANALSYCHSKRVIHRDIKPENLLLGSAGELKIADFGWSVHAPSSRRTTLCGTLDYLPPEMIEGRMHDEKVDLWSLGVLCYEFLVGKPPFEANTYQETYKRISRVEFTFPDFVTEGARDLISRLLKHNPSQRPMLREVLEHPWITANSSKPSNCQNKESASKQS
Nature of the test: IC50 determination for inhibitors of Aurora A kinase (ELISA, GST-Histone H3 substrate). Type of test: biochemical. The conditions noted are these: mutant Aur A kinase, 30 μM ATP, 40 minutes; read-out: IC50 Aurora A kinase inhibition. The method, then: IC50 Determination for Inhibitors of Aurora A Kinase Assay Principle
Aurora A is a serine threonine kinase involved in spindle assembly and chromosome segregation.
The assay is a typically ELISA-type assay where substrate (GST-Histone H3) is coupled to the assay-plate and is phosphorylated by the kinase. Phosphorylation is detected by a mouse anti-Phosphopeptid mAb and an HRP-labeled anti-mouse pAb. The assay is validated for IC50-determination.
Kinase activities were measured by Enzyme-Linked Immunosorbent Assay (ELISA): Maxisorp 384-well plates (Nunc) were coated with recombinant fusion protein comprising residues 1-15 of HistoneH3 fused to the N-terminus of Glutathione-S-Transferase. Plates were then blocked with a solution of 1 mg/mL I-block (Tropix cat# T2015—highly purified form of casein) in phosphate-buffered saline. […] After washing, substrate phosphorylation was detected by addition of anti-phospho-Histone H3 (Ser 10) 6G3 mAb (Cell Signaling cat #9706) and sheep anti-mouse pAb-HRP (Amersham cat# NA931V), followed by colorimetric development with TMB (3,3′,5,5′-tetramethylbenzidine from Kirkegaard & Perry Laboratories). After readout of the absorbance, IC50 values were calculated using a non-linear curve fit (XLfit software (ID Business Solution Ltd., Guilford, Surrey, UK))
For orientation: An ELISA detects its analyte on a solid surface through an enzyme-linked reagent.
Consider `Cc1cc(-c2nc3cc4c(cc3[nH]2)N(CC(=O)Nc2ccc(F)cc2)C(=O)C4(C)C)n[nH]1` [Example 10, 2-[7,7-Dimethyl-2-(5-methyl-1H-pyrazol-3-yl)-6-oxo-6,7-dihydro-3H-imidazo[4,5-f]indol-5-yl]-N-(4-fluoro-phenyl)-acetamide], for which the IC50 is 0.04 µM. On the same count and under the same terms, then `COCCN1C(=O)C(C)(C)c2cc3nc(-c4cc(C)[nH]n4)[nH]c3cc21` [Example 1, 5-(2-Methoxy-ethyl)-7,7-dimethyl-2-(5-methyl-1H-pyrazol-3-yl)-5,7-dihydro-3H-imidazo[4,5-f]indol-6-one], with 0.08 µM.

A further test deals with HCT 116 cells. The experiment in a line: CellTiter-Glo assay in HCT 116 cells (antiproliferative activity). Type of test: cell-based. The conditions noted are these: 120 h, HCT 116 cells (human colon carcinoma), 5 days incubation. The method, then:
The CellTiter-Glo™ Luminescent Cell Viability Assay (Promega) is a homogeneous method of determining the number of viable cells in culture based on quantitation of the ATP present, which signals the presence of metabolically active cells.
HCT 116 cells (human colon carcinoma, ATCC-No. CCl-247) were cultivated in RPMI 1640 medium with GlutaMAX™ I (Invitrogen, Cat-No. 61870-010), 2.5% Fetal Calf Serum (FCS, Sigma Cat-No. F4135 (FBS)); 100 Units/ml penicillin/100 μg/ml streptomycin (=Pen/Strep from Invitrogen Cat. No. 15140). For the assay the cells were seeded in 384 well plates, 1000 cells per well, in the same medium. The next day the test compounds were added in various concentrations ranging from 30 μM to 0.0015 μM (10 concentrations, 1:3 diluted). After 5 days the CellTiter-Glo™ assay was done according to the instructions of the manufacturer (CellTiter-Glo™ Luminescent Cell Viability Assay, from Promega). In brief: the cell-plate was equilibrated to room temperature for approximately 30 minutes and than the CellTiter-Glo™ reagent was added. The contents were carefully mixed for 15 minutes to induce cell lysis. After 45 minutes the luminescent signal was measured in Victor 2, (scanning multiwell spectrophotometer, Wallac).
1st. day: • Medium: RPMI 1640 with GlutaMAX™ I (Invitrogen, Cat-Nr. 61870), 5% FCS (Sigma Cat.-No. F4135), Pen/Strep (Invitrogen, Cat No. 15140). • HCT116 (ATCC-No. CCl-247): 1000 cells in 60 μl per well of 384 well plate (Greiner 781098, μClear-plate white) • After seeding incubate plates 24 h at 37° C., 5% CO2 2nd. Day: Induction (Treatment with Compounds, 10 Concentrations):
In order to achieve a final concentration of 30 μM as highest concentration 3.5 μl of 10 mM compound stock solution were added directly to 163 μl media. Then step e) of the dilution procedure described below, was followed.
In order to achieve the second highest to the lowest concentrations, a serial dilution with dilution steps of 1:3 was followed according to the procedure (a-e) as described here below: • a) for the second highest concentration add 10 μl of 10 mM stock solution of compound to 20 μl dimethylsulfoxide (DMSO) • b) dilute 8×1:3 (always 10 μl to 20 μl DMSO) in this DMSO dilution row (results in 9 wells with concentrations from 3333.3 μM to 0.51 μM) • c) dilute each concentration 1:47.6 (3.5 μl compound dilution to 163 μl media) • e) add 10 μl of every concentration to 60 μl media in the cell plate resulting in final concentration of DMSO: 0.3% in every well and resulting in 10 final concentration of compounds ranging from 30 μM to 0.0015 μM. • Each compound is tested in triplicate. • Incubate 120 h (5 days) at 37° C., 5% CO2
• Add 30 μl CellTiter-Glo™ Reagent (prepared from CellTiter-Glo™ Buffer and CellTiter-Glo™ Substrate (lyophilized) purchased from Promega) per well, • shake 15 minutes at room temperature • incubate further 45 minutes at room temperature without shaking
• Victor 2 scanning multiwell spectrophotometer (Wallac), Luminescence mode (0.5 sec/read, 477 nm) • Determine IC50 using a non-linear curve fit (XLfit software (ID Business Solution Ltd., Guilford, Surrey, UK))
`COc1cc(CNC(=O)CN2C(=O)C(C)(C)c3cc4nc(-c5cc(C)[nH]n5)[nH]c4cc32)cc(OC)c1` [Example 11, N-(3,5-Dimethoxy-benzyl)-2-[7,7-dimethyl-2-(5-methyl-1H-pyrazol-3-yl)-6-oxo-6,7-dihydro-3H-imidazo[4,5-f]indol-5-yl]-acetamide] showed an IC50 of 0.1 to 5 µM. For the compound `Cc1cc(-c2nc3cc4c(cc3[nH]2)N(CC(=O)NCc2ccc(F)cc2)C(=O)C4(C)C)n[nH]1` [Example 12, 2-[7,7-Dimethyl-2-(5-methyl-1H-pyrazol-3-yl)-6-oxo-6,7-dihydro-3H-imidazo[4,5-f]indol-5-yl]-N-(4-fluoro-benzyl)-acetamide], the half-inhibitory concentration (IC50) was 0.1 to 5 µM. On the same count and under the same terms, with `Cc1cc(-c2nc3cc4c(cc3[nH]2)C(C)(C)C(=O)N4CCCN2CCOCC2)[nH]n1` [Example 5, 7,7-Dimethyl-2-(5-methyl-2H-pyrazol-3-yl)-5-(3-morpholin-4-yl-propyl)-5,7-dihydro-1H-imidazo[4,5-f]indol-6-one] the figure was 0.1 to 5 µM; with `Cc1cc(-c2nc3cc4c(cc3[nH]2)N(CC(=O)N2CCOCC2)C(=O)C4(C)C)n[nH]1` [Example 9, 7,7-Dimethyl-2-(5-methyl-1H-pyrazol-3-yl)-5-(2-morpholin-4-yl-2-oxo-ethyl)-5,7-dihydro-3H-imidazo[4,5-f]indol-6-one], 5.83 µM; with `CC1(C)C(=O)N(CCCN2CCOCC2)c2cc3nc(-c4cc(C(F)(F)F)n[nH]4)[nH]c3cc21` [Example 4, 7,7-Dimethyl-5-(3-morpholin-4-yl-propyl)-2-(5-trifluoromethyl-2H-pyrazol-3-yl)-5,7-dihydro-1H-imidazo[4,5-f]indol-6-one], 0.1 to 5 µM. The same measure, in the same setting: with `Cc1cc(-c2nc3cc4c(cc3[nH]2)N(CC(=O)Nc2ccc(F)cc2)C(=O)C4(C)C)n[nH]1` [Example 10, 2-[7,7-Dimethyl-2-(5-methyl-1H-pyrazol-3-yl)-6-oxo-6,7-dihydro-3H-imidazo[4,5-f]indol-5-yl]-N-(4-fluoro-phenyl)-acetamide] the figure was 0.1 to 5 µM. The same measure, in the same setting: then `COCCN1C(=O)C(C)(C)c2cc3nc(-c4cc(C)[nH]n4)[nH]c3cc21` [Example 1, 5-(2-Methoxy-ethyl)-7,7-dimethyl-2-(5-methyl-1H-pyrazol-3-yl)-5,7-dihydro-3H-imidazo[4,5-f]indol-6-one], with 0.1 to 5 µM; and `CCCc1cc(-c2nc3cc4c(cc3[nH]2)C(C)(C)C(=O)N4CCCN2CCOCC2)[nH]n1` [Example 6, 7,7-Dimethyl-5-(3-morpholin-4-yl-propyl)-2-(5-propyl-2H-pyrazol-3-yl)-5,7-dihydro-1H-imidazo[4,5-f]indol-6-one], with 1.24 µM. `Cc1cc(-c2nc3cc4c(cc3[nH]2)C(C)(C)C(=O)N4CCN)n[nH]1` [Example 14, 5-(2-Amino-ethyl)-7,7-dimethyl-2-(5-methyl-1H-pyrazol-3-yl)-5,7-dihydro-1H-imidazo[4,5-f]indol-6-one] returned an IC50 of 5 to 15 µM. The same measure, in the same setting: then `CCN(CC)CCN1C(=O)C(C)(C)c2cc3nc(-c4cc(C)[nH]n4)[nH]c3cc21` [Example 13, 5-(2-Diethylamino-ethyl)-7,7-dimethyl-2-(5-methyl-1H-pyrazol-3-yl)-5,7-dihydro-3H-imidazo[4,5-f]indol-6-one], with 0.1 to 5 µM; and `Cc1cc(-c2nc3cc4c(cc3[nH]2)C(C)(C)C(=O)N4CC#N)n[nH]1` [Example 2, [7,7-Dimethyl-2-(5-methyl-1H-pyrazol-3-yl)-6-oxo-6,7-dihydro-1H-imidazo[4,5-f]indol-5-yl]-acetonitrile], with 0.1 to 5 µM. On the same count and under the same terms, then `C=CCN1C(=O)C(C)(C)c2cc3nc(-c4cc(C)[nH]n4)[nH]c3cc21` [Example 3, 5-Allyl-7,7-dimethyl-2-(5-methyl-1H-pyrazol-3-yl)-5,7-dihydro-3H-imidazo[4,5-f]indol-6-one], with 0.1 to 5 µM.

Broadly, the IC50 is the concentration at which inhibition is half-maximal.

Values taken from patent US20090143375A1, “Tricyclic Lactam Derivatives, Their Manufacture and Use as Pharmaceutical Agents” (F. HOFFMANN-LA ROCHE AG, priority 2005, published 2009).
